From patent US20130005747A1, “METHOD FOR SELECTING A CANCER THERAPY” (Cyclacel Limited, priority 2010, published 2013)

Assays:
Assay in all cases: Fractional growth, 72 h seliciclib
Assay type in all cases: cell-based, human
A2780 = A2780 (Ovary), 15 μM seliciclib
Text: (§1) A total of 270 human cancer cell lines from diverse cancer histopathologic types were investigated.

BEN = BEN (Lung: NSCLC), 15 μM seliciclib
Text: as §1

BHT-101 = BHT-101 (Thyroid), 15 μM seliciclib
Text: as §1

C32 = C32 (Skin), 15 μM seliciclib
Text: as §1

DoTc2 4510 = DoTc2 4510 (Cervix), 15 μM seliciclib
Text: as §1

EN = EN (Uterus), 15 μM seliciclib
Text: as §1

G-401 = G-401 (Kidney), 15 μM seliciclib
Text: as §1

HSC-3 = HSC-3 (Head & Neck), 15 μM seliciclib
Text: as §1

HSC-4 = HSC-4 (Head & Neck), 15 μM seliciclib
Text: as §1

HUP-T3 = HUP-T3 (Pancreas), 15 μM seliciclib
Text: as §1

IGR-1 = IGR-1 (Skin), 15 μM seliciclib
Text: as §1

JHU-013 = JHU-013 (Head & Neck), 15 μM seliciclib
Text: as §1

JHU-028 = JHU-028 (Head & Neck), 15 μM seliciclib
Text: as §1

KP-3L = KP-3L (Pancreas), 15 μM seliciclib
Text: as §1

KU-19-19 = KU-19-19 (Bladder), 15 μM seliciclib
Text: as §1

KYSE-510 = KYSE-510 (Esophagus), 15 μM seliciclib
Text: as §1

MFE-280 = MFE-280 (Uterus), 15 μM seliciclib
Text: as §1

NCI-H1781 = NCI-H1781 (Lung: NSCLC), 15 μM seliciclib
Text: as §1

NCI-H1793 = NCI-H1793 (Lung: NSCLC), 15 μM seliciclib
Text: as §1

NCI-H1915 = NCI-H1915 (Lung: NSCLC), 15 μM seliciclib
Text: as §1

NCI-H1975 = NCI-H1975 (Lung: NSCLC), 15 μM seliciclib
Text: as §1

NCI-H630 = NCI-H630 (Intestine), 15 μM seliciclib
Text: as §1

NCI-H647 = NCI-H647 (Lung: NSCLC), 15 μM seliciclib
Text: as §1

PCI-15B = PCI-15B (Head & Neck), 15 μM seliciclib
Text: as §1

PCI-38 = PCI-38 (Head & Neck), 15 μM seliciclib
Text: as §1

PCI-6B = PCI-6B (Head & Neck), 15 μM seliciclib
Text: as §1

PFSK-1 = PFSK-1 (Brain), 15 μM seliciclib
Text: as §1

Panc 08.13 = Panc 08.13 (Pancreas), 15 μM seliciclib
Text: as §1

RERF-GC-1B = RERF-GC-1B (Stomach), 15 μM seliciclib
Text: as §1

SCC-25 = SCC-25 (Head & Neck), 15 μM seliciclib
Text: as §1

SK-N-AS = SK-N-AS (Brain), 15 μM seliciclib
Text: as §1

SU.86.86 = SU.86.86 (Pancreas), 15 μM seliciclib
Text: as §1

SW620 = SW620 (Intestine), 15 μM seliciclib
Text: as §1

SiHa = SiHa (Cervix), 15 μM seliciclib
Text: as §1

VM-CUB1 = VM-CUB1 (Bladder), 15 μM seliciclib
Text: as §1

WM 266-4 = WM 266-4 (Skin), 15 μM seliciclib
Text: as §1

XPA-4 = XPA-4 (Pancreas), 15 μM seliciclib
Text: as §1

Question: CC[C@H](CO)Nc1nc(NCc2ccccc2)c2ncn(C(C)C)c2n1 [seliciclib, roscovitine] was tested. Which “Fractional Growth” value (A2780) did it give?
Answer: 0.4827

Question: What about the “Fractional Growth” value (BEN) of the same compound?
Answer: 0.4149

Question: What about the “Fractional Growth” value (BHT-101) of the same compound?
Answer: 0.4486

Question: And the “Fractional Growth” value (C32)?
Answer: 0.5391

Question: And the “Fractional Growth” value (DoTc2 4510)?
Answer: 0.6205

Question: What about the “Fractional Growth” value (EN) of the same compound?
Answer: 0.1503

Question: And the “Fractional Growth” value (G-401)?
Answer: 0.3542

Question: What about the “Fractional Growth” value (HSC-3) of the same compound?
Answer: 0.5223

Question: And the “Fractional Growth” value (HSC-4)?
Answer: 0.3894

Question: And the “Fractional Growth” value (HUP-T3)?
Answer: 0.4333

Question: What about the “Fractional Growth” value (IGR-1) of the same compound?
Answer: 0.5764

Question: What about the “Fractional Growth” value (JHU-013) of the same compound?
Answer: 0.2699

Question: What about the “Fractional Growth” value (JHU-028) of the same compound?
Answer: 0.5325

Question: What about the “Fractional Growth” value (KP-3L) of the same compound?
Answer: 0.4338

Question: And the “Fractional Growth” value (KU-19-19)?
Answer: 0.3033

Question: What about the “Fractional Growth” value (KYSE-510) of the same compound?
Answer: 0.4141

Question: What about the “Fractional Growth” value (MFE-280) of the same compound?
Answer: 0.5959

Question: And the “Fractional Growth” value (NCI-H1781)?
Answer: 0.6273

Question: What about the “Fractional Growth” value (NCI-H1793) of the same compound?
Answer: 0.6274

Question: What about the “Fractional Growth” value (NCI-H1915) of the same compound?
Answer: 0.4337

Question: And the “Fractional Growth” value (NCI-H1975)?
Answer: 0.4117

Question: What about the “Fractional Growth” value (NCI-H630) of the same compound?
Answer: 0.7543

Question: And the “Fractional Growth” value (NCI-H647)?
Answer: 0.4521

Question: What about the “Fractional Growth” value (PCI-15B) of the same compound?
Answer: 0.2847

Question: And the “Fractional Growth” value (PCI-38)?
Answer: 0.3656

Question: And the “Fractional Growth” value (PCI-6B)?
Answer: 0.5328

Question: And the “Fractional Growth” value (PFSK-1)?
Answer: 0.249

Question: And the “Fractional Growth” value (Panc 08.13)?
Answer: 0.4222

Question: And the “Fractional Growth” value (RERF-GC-1B)?
Answer: 0.6411

Question: And the “Fractional Growth” value (SCC-25)?
Answer: 0.571

Question: What about the “Fractional Growth” value (SK-N-AS) of the same compound?
Answer: 0.7261

Question: And the “Fractional Growth” value (SU.86.86)?
Answer: 0.3887

Question: And the “Fractional Growth” value (SW620)?
Answer: 0.7486

Question: And the “Fractional Growth” value (SiHa)?
Answer: 0.4302

Question: What about the “Fractional Growth” value (VM-CUB1) of the same compound?
Answer: 0.3307

Question: And the “Fractional Growth” value (WM 266-4)?
Answer: 0.4972

Question: What about the “Fractional Growth” value (XPA-4) of the same compound?
Answer: 0.3444
